Results published in patent US20200352905A1, “6-(2,4-DICHLOROPHENYL)-5-[4-[(3S)-1-(3-FLUOROPROPYL)PYRROLIDIN-3-YL]OXYPHENYL]-8,9-DIHYDRO-7H-BENZO[7]ANNULENE-2-CARBOXYLIC ACID FOR USE IN METASTATIC OR ADVANCED BREAST CANCER PATIENTS” (SANOFI, priority 2019, published 2020).
“Also recorded” adds a separate entry of the source.

Columns and labels:
[1] = test system: ER-positive and HER2-negative advanced breast cancer; assay: TED14856 Part A: antitumor activity per RECIST v1.1 (BOR, ORR, CBR)
Text: The signal extinction between baseline and on study treatment ^18FES-PET scans constitute the PD readout of the ER engagement.
Patients with an early progression as per RECIST v1.1 or who died from disease progression are evaluable for response.
Preliminary efficacy is descriptively presented on activity/efficacy population.

[2] = Phase 1/2 study TED14856 Part A (dose escalation): safety, DLT, TEAEs; type: in vivo
Protocol: This is an open-label, non-comparative, dose escalation and dose expansion, safety, efficacy, PK and PD evaluation study of compound (1) administered orally as monotherapy.
Dose escalation is initiated with a once daily (QD) schedule with a starting dose of 20 mg/day. Dose escalation is expected to proceed according to the Table A below. Intra-patient dose escalation is not permitted.
Part A of this study is designed using the 3+3 concept: 3 to 6 patients are treated at each dose level, depending on DLTs observed in the first 3 patients. If one of the first 3 evaluable patients experiences DLT during Cycle 1, this cohort is expanded with a total of up to 6 patients. If less than 1 out of 3 patients or less than 2 out of 6 patients experience DLTs at a given dose level, the dose escalation is proceeded to the next dose level.
For the QD regimen, during Cycle 1, one dose is taken on Day 1 in fasting condition, no dose on Day 2 and repeated administration starts from Day 3. On Day 3 only, the dose is taken in fed condition for a food effect evaluation, and then all subsequent administrations are taken in fasted condition, and at approximately the same time each day (±3 hours). From the conclusions drawn with the initial QD dose regimen, patients treated with other dose regimens are allowed to take Compound (1) in fasted or fed condition. For the BID regimen, the 600 mg dose is split in two drug administrations: 300 mg taken two times a day 12 hours apart (i.e. 2×300 mg)±1 hour with or without food (with one dose only taken in the morning on Day 1, no dose on Day 2 and then repeated BID dosing from Day 3).
Incidence of study treatment-related DLTs at Cycle 1 (Day 1 to Day 28). DLT is defined as the occurrence of any of the following treatment-emergent adverse events (TEAEs) related to the study therapy using NCI-CTCAE (v4.03): • Any Grade ≥3 non-hematological toxicity, except: • Grade 3 nausea and vomiting resolving to Grade ≤1 within 48 hours, with or without adequate antiemetic treatment, • Grade 3 diarrhea, if controlled with adequate antidiarrheal therapy and lasting less than 48 hours. • Any Grade ≥3 hematological toxicity, except • Grade 3 anemia, • Grade 4 neutropenia <7 days, • Grade 3 neutropenia without fever or infection, • Grade 3 thrombocytopenia without bleeding. • Any elevated total serum bilirubin >2×ULN. • Any toxicity related to study treatment, resulting in omission of the study treatment for 7 days or more during Cycle 1. • A TEAE that in the opinion of the study committee is possibly or probably study treatment-related and is of potential clinical significance such that further dose escalation would expose patients to unacceptable risk.
These TEAEs are considered as study treatment-related in the absence of evidence to the contrary and if not related to disease progression. If multiple toxicities are seen, the presence of DLT will be based on the most severe experienced toxicity. At the end of Cycle 1, each patient must be assessed by the Investigator as to whether or not the patient experienced DLT, and this information must be recorded within the appropriate screen of the electronic case report forms (eCRFs) and an electronic DLT notification (either DLT or not) is sent to the Sponsor. Patients can continue the treatment after resolution (Grade 1) of the adverse event (AE) or to their baseline status. Patients need to complete at least 75% of the intended doses at Cycle 1 to be evaluable and shall have ^18FES-PET scans evaluable at baseline and between Day 11 and Day 15 to be evaluable for DLTs in Part A.
Safety population includes all patients exposed to at least one dose of the study treatment.
Study treatment-related DLTs occurring during Cycle 1 are assessed and analyzed on the DLT-evaluable population. In addition, AEs meeting DLT criteria occurring in any additional cycle are assessed and analyzed on the safety population. […]

SMILES: O=C(O)c1ccc2c(c1)CCCC(c1ccc(Cl)cc1Cl)=C2c1ccc(O[C@H]2CCN(CCCF)C2)cc1 [compound (1), 6-(2,4-dichlorophenyl)-5-[4-[(3S)-1-(3-fluoropropyl)pyrrolidin-3-yl]oxyphenyl]-8,9-dihydro-7H-benzo[7]annulene-2-carboxylic acid]
- Clinical Benefit Rate ([1]; 20 mg, N=3): 0 n
- Complete Response (CR) ([1]; 20 mg, N=3): 0 n
- Objective Response Rate ([1]; 20 mg, N=3): 0 n
- Partial Response (PR) ([1]; 20 mg, N=3): 0 n
- Complete Response (CR) ([1]; 150 mg, N=3): 0 n
- Complete Response (CR) ([1]; 200 mg, N=4): 0 n
- Objective Response Rate ([1]; 200 mg, N=4): 0 n
- Partial Response (PR) ([1]; 200 mg, N=4): 0 n
- Complete Response (CR) ([1]; 400 mg, N=3): 0 n
- Objective Response Rate ([1]; 400 mg, N=3): 0 n
- Partial Response (PR) ([1]; 400 mg, N=3): 0 n
- Complete Response (CR) ([1]; 600 mg, N=3): 0 n
- Objective Response Rate ([1]; 600 mg, N=3): 0 n
- Partial Response (PR) ([1]; 600 mg, N=3): 0 n
- Complete Response (CR) ([1]; All, N=16): 0 n
- patients with tumor shrinkage greater than 10% ([1]; N=16): 9 patients
- Clinical Benefit Rate (CBR) ([1]; patients with ESR1 mutations (5/11)): 45.5%
- Clinical Benefit Rate (CBR) ([1]; patients with wild-type ESR1 (3/5)): 60.0%
- Patients with related TEAE: Urinary tract infection ([2]; Part A, N=16): 0 n
- maximum tolerated dose (MTD) ([2]; Part A, up to 600 mg QD): not reached; also recorded: no MTD observed
- patients who died during study period ([2]; Part A, 3 disease progression, 1 unknown reason): 4 patients
- patients with serious TEAEs ([2]; Part A, all considered not associated with compound (1)): 3 patients
- Patients with Gr3 TEAE: Abdominal pain upper ([2]; female, human, in vivo): 0 n
- Patients with Gr3 TEAE: Arthralgia ([2]; female, human, in vivo): 0 n
- Patients with Gr3 TEAE: Asthenia ([2]; female, human, in vivo): 0 n
- Patients with Gr3 TEAE: Constipation ([2]; female, human, in vivo): 0 n
- Patients with Gr3 TEAE: Cough ([2]; female, human, in vivo): 0 n
- Patients with Gr3 TEAE: Decreased appetite ([2]; female, human, in vivo): 0 n
- Patients with Gr3 TEAE: Diarrhea ([2]; female, human, in vivo): 0 n
- Patients with Gr3 TEAE: Dry skin ([2]; female, human, in vivo): 0 n
- Patients with Gr3 TEAE: Dysgeusia ([2]; female, human, in vivo): 0 n
- Patients with Gr3 TEAE: Hot flush ([2]; female, human, in vivo): 0 n
- Patients with Gr3 TEAE: Hypertension ([2]; female, human, in vivo): 0 n
- Patients with Gr3 TEAE: Hypoaesthesia ([2]; female, human, in vivo): 0 n
- Patients with Gr3 TEAE: Musculoskeletal chest pain ([2]; female, human, in vivo): 0 n
- Patients with Gr3 TEAE: Myalgia ([2]; female, human, in vivo): 0 n
- Patients with Gr3 TEAE: Nasopharyngitis ([2]; female, human, in vivo): 0 n
- Patients with Gr3 TEAE: Nausea ([2]; female, human, in vivo): 0 n
- Patients with Gr3 TEAE: Night sweat ([2]; female, human, in vivo): 0 n
- Patients with Gr3 TEAE: Pain ([2]; female, human, in vivo): 0 n
- Patients with Gr3 TEAE: Photophobia ([2]; female, human, in vivo): 0 n
- Patients with Gr3 TEAE: Rash ([2]; female, human, in vivo): 0 n
- Patients with Gr3 TEAE: Upper respiratory tract infection ([2]; female, human, in vivo): 0 n
- Patients with Gr3 TEAE: Vomiting ([2]; female, human, in vivo): 0 n
- Patients with related Gr3 TEAE: ALL ([2]; female, human, in vivo): 0 n
- Patients with related Gr3 TEAE: Abdominal pain upper ([2]; female, human, in vivo): 0 n
- Patients with related Gr3 TEAE: Arthralgia ([2]; female, human, in vivo): 0 n
- Patients with related Gr3 TEAE: Asthenia ([2]; female, human, in vivo): 0 n
- Patients with related Gr3 TEAE: Back pain ([2]; female, human, in vivo): 0 n
- Patients with related Gr3 TEAE: Constipation ([2]; female, human, in vivo): 0 n
- Patients with related Gr3 TEAE: Cough ([2]; female, human, in vivo): 0 n
- Patients with related Gr3 TEAE: Decreased appetite ([2]; female, human, in vivo): 0 n
- Patients with related Gr3 TEAE: Diarrhea ([2]; female, human, in vivo): 0 n
- Patients with related Gr3 TEAE: Dry skin ([2]; female, human, in vivo): 0 n
- Patients with related Gr3 TEAE: Dysgeusia ([2]; female, human, in vivo): 0 n
- Patients with related Gr3 TEAE: Dyspnoea ([2]; female, human, in vivo): 0 n
- Patients with related Gr3 TEAE: Fatigue ([2]; female, human, in vivo): 0 n
- Patients with related Gr3 TEAE: Hot flush ([2]; female, human, in vivo): 0 n
- Patients with related Gr3 TEAE: Hypertension ([2]; female, human, in vivo): 0 n
- Patients with related Gr3 TEAE: Hypoaesthesia ([2]; female, human, in vivo): 0 n
- Patients with related Gr3 TEAE: Musculoskeletal chest pain ([2]; female, human, in vivo): 0 n
- Patients with related Gr3 TEAE: Myalgia ([2]; female, human, in vivo): 0 n
- Patients with related Gr3 TEAE: Nasopharyngitis ([2]; female, human, in vivo): 0 n
- Patients with related Gr3 TEAE: Nausea ([2]; female, human, in vivo): 0 n
- Patients with related Gr3 TEAE: Night sweat ([2]; female, human, in vivo): 0 n
- Patients with related Gr3 TEAE: Pain ([2]; female, human, in vivo): 0 n
- Patients with related Gr3 TEAE: Photophobia ([2]; female, human, in vivo): 0 n
- Patients with related Gr3 TEAE: Rash ([2]; female, human, in vivo): 0 n
- Patients with related Gr3 TEAE: Upper respiratory tract infection ([2]; female, human, in vivo): 0 n
- Patients with related Gr3 TEAE: Urinary tract infection ([2]; female, human, in vivo): 0 n
- Patients with related Gr3 TEAE: Vomiting ([2]; female, human, in vivo): 0 n
- Patients with related TEAE: Cough ([2]; female, human, in vivo): 0 n
- Patients with related TEAE: Dysgeusia ([2]; female, human, in vivo): 0 n
- Patients with related TEAE: Hypoaesthesia ([2]; female, human, in vivo): 0 n
- Patients with related TEAE: Musculoskeletal chest pain ([2]; female, human, in vivo): 0 n
- Patients with related TEAE: Nasopharyngitis ([2]; female, human, in vivo): 0 n
- Patients with related TEAE: Rash ([2]; female, human, in vivo): 0 n
- Patients with related TEAE: Upper respiratory tract infection ([2]; female, human, in vivo): 0 n
- serious TEAEs reported ([2]; female, human, in vivo): 4
